According to US5773421A, “Antifungal fusacandins” (Abbott Laboratories, priority 1995, dated 1998):
Converted amounts (≈) assume the structure as drawn. Where two headings read alike, the source gives them in different places.

Tests used:
[1] = Minimum inhibitory concentration (MIC) stated with the glucan synthase screen; type: cell-based; conditions: organism not given
[2] = test system: Staphylococcus aureus ATTC 6538p; assay: MIC by agar dilution method; type: cell-based; conditions: ATTC6538P; Table 6a; Staphylococcus aureus ATTC 6538p; agar dilution, 32° C., 20 hours; read-out: MIC
glucan synthase = target: T1, glucan synthase (Candida albicans, UniProt O13428); assay: Microtiter screen for inhibitors of (1,3)-β-glucan formation in cell free extracts; type: biochemical; conditions: C. albicans microsomes, [14C]UDP-Glc, water-insoluble β-glucan product on filter
T1 construct: Microsomes isolated from mid-log phase grown yeast; endogenous in cells; host or cells: Candida albicans, mid-log phase yeast cells, microsomes
T1 sequence (O13428 1-1897): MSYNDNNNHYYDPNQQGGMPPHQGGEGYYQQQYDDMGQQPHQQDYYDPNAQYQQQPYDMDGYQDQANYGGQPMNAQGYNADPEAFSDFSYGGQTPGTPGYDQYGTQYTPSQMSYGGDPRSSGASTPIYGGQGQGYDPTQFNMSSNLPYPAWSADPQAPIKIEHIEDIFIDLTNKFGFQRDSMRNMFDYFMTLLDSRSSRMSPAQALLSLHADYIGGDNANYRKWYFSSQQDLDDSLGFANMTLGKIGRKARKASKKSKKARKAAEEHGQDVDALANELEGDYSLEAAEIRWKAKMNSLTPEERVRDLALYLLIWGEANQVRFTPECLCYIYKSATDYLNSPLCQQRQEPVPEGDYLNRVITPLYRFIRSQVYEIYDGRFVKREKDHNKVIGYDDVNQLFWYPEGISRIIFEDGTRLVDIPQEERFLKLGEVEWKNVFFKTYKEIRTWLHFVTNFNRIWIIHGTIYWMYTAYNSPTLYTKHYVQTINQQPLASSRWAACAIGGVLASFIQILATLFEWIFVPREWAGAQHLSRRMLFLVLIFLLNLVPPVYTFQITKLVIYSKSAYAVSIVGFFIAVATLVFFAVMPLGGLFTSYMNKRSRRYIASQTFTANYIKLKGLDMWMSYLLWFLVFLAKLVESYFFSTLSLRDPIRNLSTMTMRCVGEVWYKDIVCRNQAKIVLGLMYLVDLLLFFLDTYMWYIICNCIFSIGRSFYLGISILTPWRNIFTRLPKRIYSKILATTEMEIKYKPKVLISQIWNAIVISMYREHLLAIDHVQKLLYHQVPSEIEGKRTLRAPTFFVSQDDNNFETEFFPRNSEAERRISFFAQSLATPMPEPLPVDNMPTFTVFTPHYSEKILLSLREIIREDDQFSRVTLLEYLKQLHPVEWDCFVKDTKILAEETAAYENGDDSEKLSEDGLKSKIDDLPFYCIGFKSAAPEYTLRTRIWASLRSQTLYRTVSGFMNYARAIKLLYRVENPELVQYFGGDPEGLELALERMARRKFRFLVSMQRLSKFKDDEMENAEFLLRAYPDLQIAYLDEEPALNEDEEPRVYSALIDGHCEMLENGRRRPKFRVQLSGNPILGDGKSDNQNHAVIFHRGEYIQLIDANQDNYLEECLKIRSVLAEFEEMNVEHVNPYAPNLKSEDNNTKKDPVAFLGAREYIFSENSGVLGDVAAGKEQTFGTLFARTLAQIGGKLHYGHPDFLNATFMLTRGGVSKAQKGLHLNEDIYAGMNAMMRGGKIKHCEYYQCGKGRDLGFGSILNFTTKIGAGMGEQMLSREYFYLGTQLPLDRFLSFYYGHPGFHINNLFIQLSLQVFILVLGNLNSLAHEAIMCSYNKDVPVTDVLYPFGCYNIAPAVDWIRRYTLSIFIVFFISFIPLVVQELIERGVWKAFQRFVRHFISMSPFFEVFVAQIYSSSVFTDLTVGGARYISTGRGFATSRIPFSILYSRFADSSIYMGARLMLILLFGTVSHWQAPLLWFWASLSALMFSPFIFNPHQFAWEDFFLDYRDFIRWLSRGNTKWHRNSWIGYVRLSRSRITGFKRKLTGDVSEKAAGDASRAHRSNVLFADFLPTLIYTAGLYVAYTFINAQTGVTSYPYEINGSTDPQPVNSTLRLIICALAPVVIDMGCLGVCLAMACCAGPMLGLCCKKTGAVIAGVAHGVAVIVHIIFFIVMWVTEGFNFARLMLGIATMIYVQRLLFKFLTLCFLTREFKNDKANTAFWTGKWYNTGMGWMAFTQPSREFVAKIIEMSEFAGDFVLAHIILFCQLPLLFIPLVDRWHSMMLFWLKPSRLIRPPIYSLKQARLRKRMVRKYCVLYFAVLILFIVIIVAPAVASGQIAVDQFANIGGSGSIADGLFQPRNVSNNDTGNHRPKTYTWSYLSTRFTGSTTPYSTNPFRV
Excerpt: The fungal cell wall serves as a protective barrier and is essential for viability in a hypotonic environment. (1,3)-β-Glucan is a component of the Candida albicans cell wall, and the enzyme that biosynthesizes this polymer, glucan synthase, is not present in higher eukaryotes. (Glucan synthase is an integral plasma membrane protein that catalyzes polymerization of uridine diphosphate-glucose (UDP-Glc) into β-glucan.) Accordingly, glucan synthase represents an ideal target for the development of antifungal agents.
A microtiter screen was established to detect inhibitors of (1 ,3)-β-glucan formation in C. albicans cell free extracts. Microsomes isolated from mid-log phase grown yeast were incubated with [^14 C]UDP-Glc, effectors and test compound (fusacandin A, Example 4). The formation of the water-insoluble β-glucan product was measured on a filter after removing the substrate with water washes.

[3] = MIC by broth dilution assay; type: cell-based; conditions: Table 6d, 2 ×10^5 organisms/mL; for MIC: 144 h, no sorbitol
Description: Minimal inhibitory concentrations (MICs) were determined by a broth dilution assay described by Frost, D., Brandt, K., Cugier, D., and Goldman, R. in J. Antibiotics 48: 306-310 (1995) which is incorporated herein by reference. The final concentration of cells was 2 ×10^5 organisms/mL.

(1,3)-β-Glucan Synthase = target: T2, (1,3)-β-Glucan Synthase (Candida albicans, UniProt O13428); assay: In vitro inhibition of (1,3)-β-glucan synthase activity, microsomal enzyme preparation; type: biochemical; conditions: C. albicans CCH 442 microsomal enzyme
T2 construct: microsomal enzyme preparation C. albicans CCH 442; endogenous in cells; host or cells: Candida albicans CCH 442, microsomes
T2 sequence (O13428 1-1897): as above
Description: The assay was conducted in a final volume of 100 μL of 2.0 mM UDP-[^14 C]-Glc (0.625 mCi/mmol), 1 mM EDTA, 8% (v/v) glycerol, 20 μM GTPgS, 0.5% Brij-35(v/v) or 0.8% BSA, 80 mM Tris/HCl, pH 7.75, and microsomal enzyme preparation C. albicans CCH 442 (100 μg of protein). A detailed description of this assay is described by Frost, D., Brandt, K. Capobioanco, and Goldman, R., Microbiology 140: 2239-2246 (1994) which is incorporated herein by reference.

[4] = test system: Nocardia asteroides ATTC 9970; assay: MIC by agar dilution method; type: cell-based; conditions: ATTC9970; Table 6a; Nocardia asteroides ATTC 9970; agar dilution, 32° C., 20 hours; read-out: MIC
Candida kefyr ATTC 288 = assay: MIC by agar dilution method; type: cell-based; conditions: Kluyveromyces marxianus
Description: (§1) Minimal inhibitory concentrations (MICs) were determined by an agar dilution method. The test compounds were serially diluted in MeOH and 0.2 mL portions were mixed with 20 mL of molten, cooled Sabouraud dextrose agar (Difco). Yeast cell inoculum was prepared by growing cultures on Sabouraud dextrose agar for 18 hours at 32° C. and suspending the cells in phosphate buffered saline. Filamentous fungi were grown under the same conditions for 4 days to obtain spores. The inoculum level for all cultures was adjusted to 10^4 cells using a Petroff-Hauser cell counter. The glutarimide antifungal compounds cycloheximide or amphotericin B were used as a control. Inoculated test plates were incubated at 32° C. and examined after 20 hours.

[5] = test system: Candida albicans ATCC 38247; assay: MIC by agar dilution method; type: cell-based; conditions: ATCC38247; Table 6c; IV Candida albicans ATCC 38247; agar dilution; read-out: MIC IV
Description: as §1

[6] = test system: Torulopsis glabrata ATCC 155; assay: MIC by agar dilution method; type: cell-based; conditions: Nakaseomyces glabratus, ATCC155, Torulopsis glabrata ATCC 155, agar dilution, 32° C., 20 hours, read-out: MIC
Description: as §1

[7] = test system: Candida albicans ATCC 62376; assay: MIC by agar dilution method; type: cell-based; conditions: ATCC62376; Table 6c; V Candida albicans ATCC 62376; agar dilution; read-out: MIC V
Description: as §1

[8] = test system: Candida albicans ATCC 623; assay: MIC by agar dilution method; type: cell-based; conditions: ATCC623, Candida albicans ATCC 623, agar dilution, 32° C., 20 hours, read-out: MIC
Description: as §1

[9] = test system: Candida tropicalis NRRL-Y-1; assay: MIC by agar dilution method; type: cell-based; conditions: NRRLY1, agar dilution, 32° C., 20 hours, read-out: MIC
Description: as §1

Candida albicans CCH 442 = assay: MIC by agar dilution method; type: cell-based; conditions: CCH442, agar dilution
Description: as §1

[10] = test system: Candida albicans ATCC 10231; assay: MIC by agar dilution method; type: cell-based; conditions: ATCC10231; Table 6c; I Candida albicans ATCC 10231; agar dilution; read-out: MIC I
Description: as §1

[11] = test system: Saccharomyces cereviseae GS1-36; assay: MIC by agar dilution method; type: cell-based; conditions: GS136, Saccharomyces cereviseae GS1-36, agar dilution, 32° C., 20 hours, read-out: MIC
Description: as §1

Candida albicans 579a = assay: MIC by agar dilution method; type: cell-based
Description: as §1

[12] = test system: Candida albicans ATCC 997; assay: MIC by agar dilution method; type: cell-based; conditions: ATCC997; Table 6a; Candida albicans ATCC 997; agar dilution, 32° C., 20 hours; read-out: MIC
Description: as §1

[13] = test system: Aspergillus niger ATCC 164; assay: MIC by agar dilution method; type: cell-based; conditions: ATCC164, Aspergillus niger ATCC 164, agar dilution, 32° C., 20 hours, read-out: MIC
Description: as §1

[14] = test system: Streptococcus bovis A-5169; assay: MIC by agar dilution method; type: cell-based; conditions: Streptococcus equinus, A5169; Table 6a; Streptococcus bovis A-5169; agar dilution, 32° C., 20 hours; read-out: MIC
[15] = test system: Streptococcus pyrogenes EES61; assay: MIC by agar dilution method; type: cell-based; conditions: Table 6a; Streptococcus pyrogenes EES61; agar dilution, 32° C., 20 hours; read-out: MIC
[16] = test system: Candida albicans ATCC 102; assay: MIC by agar dilution method; type: cell-based; conditions: ATCC102, 20 h
Description: as §1

[17] = test system: Candida albicans ATCC 382; assay: MIC by agar dilution method; type: cell-based; conditions: ATCC382, 20 h
Description: as §1

[18] = test system: Cryptococcus albidus ATCC 341; assay: MIC by agar dilution method; type: cell-based; conditions: Naganishia albida, ATCC341, Table 6b, 32° C., 20 hours
Description: as §1

[19] = Table 6c, 3rd value column (head printed II), III Candida albicans CCH 442, read-out: MIC II
[20] = Table 6c, II Candida albicans 579a, agar dilution, read-out: MIC II
[21] = Table 6b, Candida tropicalis NRRL Y-1
[22] = Table 6b, Candida albicans CCH 442, 32° C., 20 hours, read-out: MIC

Row | Compound | MIC [3] [µg/mL] | MIC [5] [µg/mL] | MIC [7] [µg/mL] | MIC (Candida albicans CCH 442; [19]) [µg/mL] | MIC [10] [µg/mL] | MIC (Candida albicans 579a; [20]) [µg/mL] | MIC (Candida kefyr ATTC 288; ATCC288, 20 h) [µg/mL] | MIC ([6]; Table 6b) [µg/mL] | MIC [16] [µg/mL] | MIC ([8]; Table 6b) [µg/mL] | MIC [17] [µg/mL] | MIC [9, 21] [µg/mL] | MIC (Candida albicans CCH 442; [22]) [µg/mL] | MIC ([11]; Table 6b) [µg/mL] | MIC (Candida albicans 579a; Candida albicans, 579A, 20 h) [µg/mL] | MIC [18] [µg/mL] | MIC ([13]; Table 6b) [µg/mL] | other results
1 | CCCCCC=CC=CC(=O)OCC1OC(OC2C(CO)OC(c3c(O)cc(O)cc3CO)C(O)C2OC(=O)C=CC=CCC(O)C=CC=CCCCCC)C(OC2OC(CO)C(O)C(O)C2O)C(O)C1O (stereo not shown) [Example 4, fusacandin A] | 0.48 (≈ 0.469 µM) | 0.78 (≈ 0.762 µM) | 1.56 (≈ 1.52 µM) | 0.78 (≈ 0.762 µM) | 1.56 (≈ 1.52 µM) | 0.78 (≈ 0.762 µM) |  |  |  |  |  |  |  |  |  |  |  | MIC [1]: 0.5 µg/mL (≈ 0.489 µM); MIC [2]: 50 µg/mL (≈ 48.9 µM); IC50 (glucan synthase; read-out: IC50 (converted)): 20 µM; IC50 ((1,3)-β-Glucan Synthase; 0.5% Brij-35, read-out: IC50 With Brij-35 (converted)): 6.84 µM; IC50 ((1,3)-β-Glucan Synthase; 0.8% BSA, read-out: IC50 With BSA (converted)): 111 µM; MIC [4]: 12.5 µg/mL (≈ 12.2 µM); MIC (Candida kefyr ATTC 288; ATTC288, Table 6a, Candida kefyr ATTC 288, agar dilution, 32° C., 20 hours, read-out: MIC): 6.25 µg/mL (≈ 6.11 µM); MIC ([6]; Table 6a): 3.12 µg/mL (≈ 3.05 µM); MIC ([8]; Table 6a): 6.25 µg/mL (≈ 6.11 µM); MIC ([9]; Table 6a, Candida tropicalis NRRL-Y-1): 6.25 µg/mL (≈ 6.11 µM); MIC (Candida albicans CCH 442; Table 6a, Candida albicans CCH 442, 32° C., 20 hours, read-out: MIC): 6.26 µg/mL (≈ 6.12 µM); MIC ([11]; Table 6a): 3.12 µg/mL (≈ 3.05 µM); MIC [12]: 12.5 µg/mL (≈ 12.2 µM); MIC ([13]; Table 6a): 6.25 µg/mL (≈ 6.11 µM); MIC [14]: 12.5 µg/mL (≈ 12.2 µM); MIC [15]: 6.25 µg/mL (≈ 6.11 µM)
2 | CCC(O)/C=C/C=C/C=C/C(=O)OC[C@H]1O[C@@H](O[C@H]2[C@H](OC(=O)/C=C/C=C/CC(O)/C(C)=C/C=C/CCC(C)CC)[C@@H](O)[C@@]3(OCc4cc(O)cc(O)c43)O[C@@H]2CO)[C@H](O)[C@@H](O)[C@H]1O (stereo partly shown) [Papulacandin B, papulacandin B, reference compound] |  |  |  |  |  |  |  |  |  |  |  |  |  |  |  |  |  | minimum inhibitory concentration (MIC) [1]: 1.0 µg/mL (≈ 1.11 µM); IC50 (glucan synthase): 3.6 µg/mL; MIC No sorbitol [3]: 0.48 µg/mL (≈ 0.533 µM); IC50 With Brij-35 ((1,3)-β-Glucan Synthase; 0.5% Brij-35): 0.8 µg/mL (≈ 0.888 µM); IC50 With BSA ((1,3)-β-Glucan Synthase; 0.8% BSA): 16.3 µg/mL (≈ 18.1 µM)
3 | CCCCC/C=C/C=C/C(O)C/C=C/C=C/C(=O)O[C@@H]1[C@@H](O)[C@H](c2c(O)cc(O)cc2CO)O[C@H](CO)[C@H]1O[C@@H]1O[C@H](CO)[C@H](O)[C@H](O)[C@H]1O[C@@H]1O[C@H](CO)[C@H](O)[C@H](O)[C@H]1O (stereo partly shown) [Example 7, fusacandin B] |  | > 100 | 50 (≈ 57.3 µM) | 25 (≈ 28.6 µM) | 50 (≈ 57.3 µM) | 25 (≈ 28.6 µM) | 100 (≈ 115 µM) | 100 (≈ 115 µM) | 50 (≈ 57.3 µM) | 100 (≈ 115 µM) | > 100 | 50 (≈ 57.3 µM) | 50 (≈ 57.3 µM) | 50 (≈ 57.3 µM) | 50 (≈ 57.3 µM) | > 100 | > 100 | 
4 | C[C@@H]1[C@H](O)[C@@H](C)/C=C/C=C/C=C/C=C/C=C/C=C/C=C/[C@H](O[C@@H]2O[C@H](C)[C@@H](O)[C@H](N)[C@@H]2O)C[C@@H]2O[C@](O)(C[C@@H](O)C[C@@H](O)[C@H](O)CC[C@@H](O)C[C@@H](O)CC(=O)O[C@H]1C)C[C@H](O)[C@H]2C(=O)O [Amphotericin B, amphotericin B, reference compound] | 0.24 (≈ 0.26 µM) |  |  |  |  |  | 1.56 (≈ 1.69 µM) | 1.56 (≈ 1.69 µM) | 1.56 (≈ 1.69 µM) | 1.56 (≈ 1.69 µM) | 50 (≈ 54.1 µM) | 1.56 (≈ 1.69 µM) | 1.56 (≈ 1.69 µM) | 1.56 (≈ 1.69 µM) | 1.56 (≈ 1.69 µM) | 3.12 (≈ 3.38 µM) | 1.56 (≈ 1.69 µM) | 
